Assay results published in patent US8399508B2, “Olopatadine formulations for topical nasal administration” (Alcon Pharmaceuticals Ltd., priority 2001, dated 2013).
Where a name gives a salt, the structure may show the parent alone.

How the values were obtained:
Assay type in all cases: physicochemical
[1] = Acid-base equilibrium of olopatadine (pKa values, iso-electric point)
Source text: Olopatadine has both a carboxylic functional group (pKa1=4.18) and a tertiary amino group (pKa2=9.79). It exists in different ionic forms depending upon the pH of the solution. Olopatadine exists predominantly as a zwitterion in the pH range between the two pKa values with a negatively-charged carboxylic group and a positively-charged tertiary amino group. The iso-electric point of the olopatadine zwitterion is at pH 6.99. At a pH lower than pKa1, cationic olopatadine (with ionized tertiary amino group) is dominant. At a pH higher than pKa2, anionic olopatadine (with ionized carboxylic group) is dominant.

[2] = Effect of NaCl and Na2HPO4 on dissolution of olopatadine hydrochloride in water
Method: The effect of NaCl on the dissolution rate of olopatadine hydrochloride in water was determined.

[3] = Effect of NaCl, Na2HPO4 and mannitol on dissolution rate of olopatadine hydrochloride in a nasal vehicle; settings: nasal formulation containing 0.01% EDTA and 0.01% BAC
Method: The effect of NaCl, Na2HPO4, and mannitol on the dissolution rate of olopatadine hydrochloride in a nasal formulation containing 0.01% EDTA and 0.01% BAC was determined.

[4] = Effect of NaCl and Na2HPO4 concentrations on dissolution of olopatadine hydrochloride in a nasal formulation
Method: The effect of NaCl and Na2HPO4 concentrations on the dissolution rate of olopatadine hydrochloride in a nasal formulation containing 0.01% EDTA and 0.01% BAC was determined. The aqueous solubility of olopatadine HCl decreases with increasing concentration of NaCl.

[5] = Example 5: visual observations of clarity during compounding, with and without phosphate buffer; settings: without phosphate buffer, 0.7% NaCl, pH as low as 3.6, compounding procedure of Example 1
Method: An exemplary compounding procedure for the nasal composition shown in Table 1 is described as below. • 1. Tare a suitable compounding vessel with magnetic stir bar. Add approximately 80% of the batch weight of purified water. • 2. While stirring, add dibasic sodium phosphate (anhydrous), sodium chloride, edetate disodium, benzalkonium chloride and olopatadine HCl. • 3. Add equivalent to approximately 0.55 g, 6N hydrochloric acid per 100 ml batch. • 4. Allow adequate time between each addition for dissolution of each ingredient • 5. Add purified water to approximately 90% of final batch weight. • 6. Measure pH and adjust, if necessary, to 3.7 with 6N (and/or 1N) hydrochloric acid and 1N sodium hydroxide. • 7. Adjust to final batch weight with purified water (QS). • 8. Measure final pH. • 9. Filter through 0.2 μm filtration membrane.
The two compositions shown in Table 2 below were prepared using the procedure described in Example 1 and visual observations of the compositions clarity were made at different points during the compounding procedure.

[6] = Example 6: visual observations, phosphate buffer added to cloudy 0.6% olopatadine composition; settings: tested nasal vehicle without a phosphate salt

| iso-electric point of the olopatadine zwitterion [1] [pH] | pKa1 (carboxylic functional group) [1] | pKa2 (tertiary amino group) [1] | effect of NaCl on rate of dissolution ([2]; in water) | effect of addition of Na2HPO4 on dissolution ([2]; in water with NaCl) | time for complete dissolution of 0.6% olopatadine solution ([2]; with Na2HPO4) | time for complete dissolution of 0.6% olopatadine solution ([2]; without Na2HPO4, assuming the entire amount would eventually dissolve) | aqueous solubility ([4]; with increasing concentration of NaCl, nasal formulation with 0.01% EDTA and 0.01% BAC) | aqueous solubility ([4]; with increasing phosphate buffer in the presence of NaCl) | dissolution of 0.665% olopatadine hydrochloride in water [5] | solubility of 0.665% olopatadine hydrochloride [6] | Structure (SMILES) | effect of phosphate salt on dissolution rate [3] |
| --- | --- | --- | --- | --- | --- | --- | --- | --- | --- | --- | --- | --- |
| 6.99 | 4.18 | 9.79 | significant reduction | dramatically improved | less than one minute | at least several hours |  |  |  |  | CN(C)CC/C=C1/c2ccccc2COc2ccc(CC(=O)O)cc21 [Olopatadine, Z-11-(3-dimethylaminopropylidene)-6,11-dihydrodibenz[b,e]oxepine-2-acetic acid] |  |
|  |  |  |  |  |  |  | decreases | increased aqueous solubility | did not completely dissolve | not soluble | CN(C)CC/C=C1/c2ccccc2COc2ccc(CC(=O)O)cc21 [olopatadine hydrochloride, hydrochloride salt of (Z)-11-(3-dimethylaminopropylidene)-6,11-dihydro-dibenz-[b,e]oxepin-2-acetic acid] | the same as that shown in water in Example 2 |
